Experimental data from patent US12325736B2, “Transduced T cells expressing human SSTR2 and application thereof” (Cornell University, priority 2016, dated 2025).
Each block holds one molecule with its values, some of them ahead of it.

How the values were obtained:
[1] = PET/CT DOTATOC uptake by subcutaneous Jurkat T cell xenografts (0-100% SSTR2+); type: in vivo, NSG mice; conditions: NSG (NOD/LtSz Prkdc^scid Il2rg^tm1Wjl/J), mouse, subcutaneous Jurkat tumor xenograft
Method: All animal experiments were performed in strict accordance with the recommendations in the Guide for the Care and Use of Laboratory Animals of the National Institutes of Health. This study's animal protocol was approved by the Institutional Laboratory Animal Use and Care Committee of Weill Cornell Medicine. SSTR2 expressing Jurkats were spiked with increasing numbers of non-transduced Jurkats to derive distinct cultures containing defined percentages of SSTR2 expression ranging from 100-0%. For each subcutaneous xenograft, 5×10^6 total cells were resuspended in 100 μl Matrigel Basement Membrane Matrix (Corning) and injected bilaterally into nonobese diabetic (NOD)/LtSz Prkdc^scid I12rg^tm1Wj1/J (NSG) mice (Jackson Laboratory). Measurements of tumor size were made using an external digital caliper. Tumor volume was calculated by using the modified ellipsoid formula 1/2(Length×Width^2). Length was measured as the longer dimension. Each dimensional measurement was rounded to the nearest 0.5 cm.
(§1) Projection data was acquired in a cone-beam geometry with approximately […] steps at 1 degree angular increments. At least 10 million coincidence events were acquired for PET per study using a 250 to 750 keV energy window and a 6 ns timing window. […] To compute DOTATOC uptake by Jurkat tumors, the ellipsoidal ROIs (Amide) were placed to enclose subcutaneous tumors that closely match overall tumor size and shape. For systemic 8505C tumor models, ellipsoids were drawn separately on the left and right sides of lungs to enclose much of five lobes of mouse lungs. The % ID/cm^3 values, computed relative to the counts in a reference tube, can be approximated to a standard uptake value (SUV^61) by dividing % ID/cm^3 by four, assuming injection efficiency of 100% and 25 g of body weight. Visualization and analyses of PET/CT images were performed using Amide (amide.sourceforge.net).

[2] = PET/CT DOTATOC uptake in lungs, 8505C mouse model and controls; type: in vivo, NSG mice; conditions: NSG
Method: 1×10^6 8505c-FLuc^+GFP^+cells were injected into NSG mice via tail vein. 2-3×10^6 primary human T cells were injected via tail vein 7-15 days after tumor cell injection. Luminescence imaging of tumor xenografts in live mice was performed using a whole body optical imager (In-Vivo Extreme 4MP, Bruker). Mice were first anesthetized with 3% isoflurane at 2 L/min O2 and subsequent to this, maintained at 2% isoflurane at 2 L/min O2. Growth or reduction in tumor burden was estimated by integration of luminescence over the lungs or the entire mouse body. Ex-vivo fluorescence imaging of mouse liver, lungs, spleen and resected tumors were performed using a whole body optical imager (In-Vivo F Pro, Bruker).
as §1

[3] = target: SSTR2 (Homo sapiens, UniProt P30874); test: Octreotide-induced SSTR2 internalization in SSTR2-transduced Jurkat T cells by flow cytometry; type: cell-based; conditions: 1 μM octreotide, 30 min, 37° C.
Method: SSTR2-transduced Jurkat T cells were incubated with or without octreotide, 1 μM (Sigma) for 30 min at 37° C. Subsequent internalization of SSTR2 was measured by flow cytometry analysis of SSTR2 expression. […] Values obtained were used for Scatchard analysis to estimate affinity and site density.

[4] = target: ICAM-1 (Homo sapiens, UniProt P05362); test: SPR measurement of LFA-1 I domain affinity to ICAM-1; type: binding
Sequence of ICAM-1 (P05362 28-532): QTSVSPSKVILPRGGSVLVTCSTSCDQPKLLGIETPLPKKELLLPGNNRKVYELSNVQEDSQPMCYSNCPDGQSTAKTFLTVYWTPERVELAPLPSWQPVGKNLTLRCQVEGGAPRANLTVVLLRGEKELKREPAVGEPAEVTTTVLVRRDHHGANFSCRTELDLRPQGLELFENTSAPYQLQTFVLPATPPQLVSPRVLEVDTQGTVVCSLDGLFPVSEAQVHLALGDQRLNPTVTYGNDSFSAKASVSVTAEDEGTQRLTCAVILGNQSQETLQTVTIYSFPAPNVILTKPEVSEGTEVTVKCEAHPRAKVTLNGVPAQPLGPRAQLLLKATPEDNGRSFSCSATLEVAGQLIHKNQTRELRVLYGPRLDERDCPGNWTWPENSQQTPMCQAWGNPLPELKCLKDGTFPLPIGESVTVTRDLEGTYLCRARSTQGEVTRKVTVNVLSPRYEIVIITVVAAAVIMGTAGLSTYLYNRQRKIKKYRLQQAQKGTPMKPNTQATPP
Source text: Affinity is first measured by surface plasmon resonance (e.g., Biacore) to assess 1.1 binding affinity between I domain and ICAM-1.

Sequence of SSTR2 (P30874 whole entry): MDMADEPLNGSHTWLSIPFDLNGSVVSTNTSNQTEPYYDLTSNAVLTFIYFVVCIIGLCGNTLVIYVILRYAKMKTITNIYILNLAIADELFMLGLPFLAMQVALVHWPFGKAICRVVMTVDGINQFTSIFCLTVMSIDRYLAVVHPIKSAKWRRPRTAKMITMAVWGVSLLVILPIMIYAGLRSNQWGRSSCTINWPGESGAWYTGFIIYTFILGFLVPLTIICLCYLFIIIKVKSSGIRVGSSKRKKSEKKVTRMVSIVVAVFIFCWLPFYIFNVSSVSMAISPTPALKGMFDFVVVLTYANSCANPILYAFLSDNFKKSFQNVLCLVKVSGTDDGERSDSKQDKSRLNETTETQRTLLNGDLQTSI

B1: F292G: LFA-1 I domain mutant F292G, G128-G311 of SEQ ID NO: 1 (protein, listed as Homo sapiens)
chain: GNVDLVFLFDGSMSLQPDEFQKILDFMKDVMKKLSNTSYQFAAVQFSTSYKTEFDFSDYVKWKDPDALLKHVKHMLLLTNTFGAINYVATEVFREELGARPDATKVLIIITDGEATDSGNIDAAKDIIRYIIGIGKHFQTKESQETLHKFASKPASEFVKILDTGEKLKDLFTELQKKIYVIEG
Kd ([4]; SPR measurements, I domain to ICAM-1): 100 nM

B2: F265S/F292G (DM): LFA-1 I domain double mutant F265S/F292G, G128-G311 of SEQ ID NO: 1 (protein, listed as Homo sapiens)
chain: GNVDLVFLFDGSMSLQPDEFQKILDFMKDVMKKLSNTSYQFAAVQFSTSYKTEFDFSDYVKWKDPDALLKHVKHMLLLTNTFGAINYVATEVFREELGARPDATKVLIIITDGEATDSGNIDAAKDIIRYIIGIGKHSQTKESQETLHKFASKPASEFVKILDTGEKLKDLFTELQKKIYVIEG
affinity higher than the wild-type (WT) I domain ([4]; vs WT KD=1.5 mM): approximately 200,000 fold

Other lines, results leading:

tissue uptake per volume ([1]; Jurkat tumors containing 0% SSTR2+ cells): 0.6 to 0.8 %ID/mL
tissue uptake per volume ([1]; tumors below 65 mm^3, 0% SSTR2+): 0.44 ± 0.2 %ID/mL
tissue uptake per volume ([1]; tumors below 65 mm^3, 1% SSTR2+): 0.64 ± 0.4 %ID/mL
tissue uptake per volume ([1]; tumors below 65 mm^3, 10% SSTR2+): 0.83 ± 0.5 %ID/mL
tissue uptake per volume ([1]; tumors below 65 mm^3, 100% SSTR2+): 3.4 ± 1.7 %ID/mL
tissue uptake per volume ([1]; tumors larger than 65 mm^3, 0% SSTR2+): 0.8 ± 0.35 %ID/mL
tissue uptake per volume ([1]; tumors larger than 65 mm^3, 0.1% SSTR2+): 1.1 ± 0.51 %ID/mL
tissue uptake per volume ([1]; tumors larger than 65 mm^3, 1% SSTR2+): 2 ± 0.77 %ID/mL
tissue uptake per volume ([1]; tumors larger than 65 mm^3, 10% SSTR2+): 2.8 ± 1.1 %ID/mL
tissue uptake per volume ([1]; tumors larger than 65 mm^3, 100% SSTR2+): 7.1 ± 2.3 %ID/mL
tissue uptake per volume ([2]; lungs, DOTATOC uptake in the lungs, mice treated with RR T cells): 1 %ID/mL
tissue uptake per volume ([2]; lungs, DOTATOC uptake, mice with no tumors infused with SS T cells): 0.7 %ID/mL
tissue uptake per volume ([2]; thoracic cavity, non-specific DOTATOC uptake in the thoracic cavity, high tumor burden, 23-27 days post-tumor xenograft, no T cells or SS T cells): 1.3 ± 0.5 %ID/mL
Molecule: C[C@@H](O)[C@@H]1NC(=O)[C@H](CCCCN)NC(=O)[C@@H](Cc2c[nH]c3ccccc23)NC(=O)[C@H](Cc2ccc(O)cc2)NC(=O)[C@@H](NC(=O)[C@@H](Cc2ccccc2)NC(=O)CN2CCN(CC(=O)O)CCN(CC(=O)O)CCN(CC(=O)O)CC2)CSSC[C@@H](C(=O)N[C@H](CO)[C@@H](C)O)NC1=O [DOTATOC, 1,4,7,10-tetraazacyclododecane-N^I,N^II,N^III,N^IIII-tetraacetic acid (D)-Phe^1-Tyr^3-octreotide]

surface expression of SSTR2 (antibody binding) [3]: reduced surface expression of SSTR2
Molecule: C[C@@H](O)[C@@H]1NC(=O)[C@H](CCCCN)NC(=O)[C@@H](Cc2c[nH]c3ccccc23)NC(=O)[C@H](Cc2ccccc2)NC(=O)[C@@H](NC(=O)[C@H](N)Cc2ccccc2)CSSC[C@@H](C(=O)N[C@H](CO)[C@@H](C)O)NC1=O [octreotide]
